System: Pseudomonas aeruginosa PAM1001
Test: checkerboard assay (broth microdilution): levofloxacin MIC in presence of efflux pump inhibitor
Assay type: cell-based
Outline: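 Reduction of levofloxacin MIC by an efflux pump inhibitor measured against Pseudomonas aeruginosa PAM1001. Each microdilution well held a unique combination of levofloxacin and inhibitor (max 40 μg/mL) in MHB, inoculum 5×10^5 CFU/mL. Readout after 20 h, 35° C: OD650 plus visual inspection.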

| Compound | Levofloxacin MIC Against P. aerugiuosa PAM1001 in Presence of Efflux Pump Inhibitor (EPI), Minimum Inhibitory Concentration (EPI Conc. 0 μg/mL) [µg/mL] | Levofloxacin MIC Against P. aerugiuosa PAM1001 in Presence of Efflux Pump Inhibitor (EPI), Minimum Inhibitory Concentration (EPI Conc. 0.625 μg/mL) [µg/mL] | Levofloxacin MIC Against P. aerugiuosa PAM1001 in Presence of Efflux Pump Inhibitor (EPI), Minimum Inhibitory Concentration (EPI Conc. 1.25 μg/mL) [µg/mL] | Levofloxacin MIC Against P. aerugiuosa PAM1001 in Presence of Efflux Pump Inhibitor (EPI), Minimum Inhibitory Concentration (EPI Conc. 2.5 μg/mL) [µg/mL] | Levofloxacin MIC Against P. aerugiuosa PAM1001 in Presence of Efflux Pump Inhibitor (EPI), Minimum Inhibitory Concentration (EPI Conc. 5 μg/ mL) [µg/mL] | Levofloxacin MIC Against P. aerugiuosa PAM1001 in Presence of Efflux Pump Inhibitor (EPI), Minimum Inhibitory Concentration (EPI Conc. 10 μg/mL) [µg/mL] | Levofloxacin MIC Against P. aerugiuosa PAM1001 in Presence of Efflux Pump Inhibitor (EPI), Minimum Inhibitory Concentration (EPI Conc. 20 μg/mL) [µg/mL] | Levofloxacin MIC Against P. aerugiuosa PAM1001 in Presence of Efflux Pump Inhibitor (EPI), Minimum Inhibitory Concentration (EPI Conc. 40 μg/mL) [µg/mL] |
| --- | --- | --- | --- | --- | --- | --- | --- | --- |
| NCC(=O)N[C@H]1CN[C@H](c2nc3ccc(Cc4ccccc4)cc3[nH]2)C1 [Compound M73, (2S,4R)-4-(2-Aminoacetamido)-2-(5-benzyl-2-benzmidazolyl)pyrrolidine] | 4 | 4 | 4 | – | – | – | – | – |
| NCC(=O)N[C@H]1CN[C@H](c2nc3ccccc3n2CCc2ccccc2)C1 [Compound M75, (2S,4R)-4-(2-Aminoacetamido)-2-(1-(2-phenyl)ethyl-2-benzimidazolyl)pyrrolidine] | 4 | 4 | 4 | 4 | 4 | 4 | 1 | 0.03 |
| NCC(=O)N[C@H]1CN[C@H](C(=O)N[C@H](CCc2ccccc2)c2nc3ccccc3o2)C1 [Compound M77, (2S,4R)-4-(2-Aminoacetamido)-N-[(1R)-1-(2-benzoxazolyl)-3-pheylpropyl]-2-pyrrolidinexarboxamide] | 4 | 4 | 4 | 4 | 4 | 4 | 2 | 0.125 |
| NCC(=O)N[C@H]1CN[C@H](C(=O)N[C@@H](CCc2ccccc2)c2nc3ccccc3[nH]2)C1 [Compound M78] | 4 | 4 | 4 | 4 | 4 | 2 | 1 | 0.125 |
| NCC(=O)N[C@H]1CN[C@H](C(=O)NCc2nc3cc(Cc4ccccc4)ccc3[nH]2)C1 [Compound M79, (2S,4R)-4-(2-Aminoacetamido)-N-[(5-benzyl-2-benzimidazolyl)methyl]-2-pyrrolidinexarboxamide] | 4 | 4 | 4 | 4 | 4 | 2 | 1 | 0.125 |
| NCC(=O)N[C@H]1CN[C@H](C(=O)NCc2nc3ccccc3n2CCc2ccccc2)C1 [Compound M80, (2S,4R)-4-(2-Aminoacetamido)-N-[(1-(2-phenyl)ethyl-2-benzimidazoly)methyl]-2-pyrrolidinexarboxamide] | 4 | 4 | 4 | 4 | 2 | 0.25 | 0.06 | 0.06 |
| CC(C)(C)c1ccc2nc(CNC(=O)[C@@H]3C[C@@H](NC(=O)CN)CN3)[nH]c2c1 [Compound M81] | 4 | 4 | 4 | 4 | 2 | 1 | 0.25 | 0.03 |
| NCC(=O)N[C@H]1CN[C@H](C(=O)NCc2nc3cc(C(O)c4ccccc4)ccc3[nH]2)C1 (stereo partly drawn) [Compound M82, (2S,4R)-4-(2-Aminoacetamido)-N-[(5-(1-hydroxy-1-phenyl)methyl-2-benzimidazolyl)methyl]-2-pyrrolidinecarboxaniide] | 4 | 4 | 4 | 2 | 1 | 0.25 | 0.125 | 0.06 |
| NCC(=O)N[C@H]1CN[C@H](C(=O)N[C@@H](CCc2ccccc2)c2nc3ccccc3o2)C1 [Compound M85, (2S,4R)-4-(2-Aminoacetamido)-N-[(1S)-1-(2-benzoxazoiyl)-3-phenylpropyl]-2-pyrrolidinecarboxamide] | 4 | 4 | 4 | 4 | 4 | 2 | 0.50 | 0.03 |
| NC[C@H]1CN[C@@H](C(=O)NCc2nc3ccc(Cc4ccccc4)cc3[nH]2)C1 [Compound M87, (2R,4S)-4-(Aminomethyl)-N-[(5-benzyl-2-benzimidazoiyl)methyl]-2-pyrrolidinecarboxamide] | 4 | 4 | 4 | 1 | 0.125 | 0.06 | 0.03 | – |
| NC[C@@H]1CN[C@@H](C(=O)NCc2nc3ccc(-c4ccccc4)cc3[nH]2)C1 [Compound M89, (2R,4R)-4-(Aminomethyl)-N-[(5-phenyl-2-benzimidaxolyl)methyl]-2-pyrrolidinecarboxamide] | 4 | 4 | 4 | 4 | 2 | 2 | 0.03 | 0.03 |
| CC(C)(C)c1ccc2ncc(NC(=O)[C@@H]3C[C@@H](OCCN)CN3)cc2c1 [Compound M92, (2S,4R)-4-(2-Aminoethyloxy)-N-(6-(1,1-dimethyl)ethyl-3-quinolyl)-2-pyrrolidinecarboxamide] | 4 | 4 | 4 | 4 | 4 | 2 | 0.06 | 0.008 |
